Structures are written as SMILES.

Assay [1] has as its target T1, human FGFR3 wild type enzyme (cytoplasmic domain) (Homo sapiens, UniProt P22607).
T1 construct: human FGFR3 wild type enzyme (cytoplasmic domain, from Carna Biosciences); purchased Carna Biosciences
Put plainly: FGFR3 wild type mobility shift assay (enzymatic assay). To be noted: 75 μM ATP, 50 minutes at 30° C., Caliper EZ reader II. Format: biochemical. Here is the method:
FGFR3 Wild Type Mobility Shift Assay (Enzymatic Assay)
(§1) In a final reaction volume of 25 μL, 0.04 ng/μL human FGFR3 wild type enzyme (cytoplasmic domain, from Carna Biosciences) was incubated with 75 μM ATP, 1 μM FL-peptide 30 substrate and 250 nL of testing compound (1% DMSO final) in assay buffer (100 mM HEPES pH 7.4, 10 mM MgCl2, 0.003% Brij35, 1 mM DTT). After incubation for 50 minutes at 30° C. the reaction was stopped with 10 μL of 0.5M EDTA pH 8.0, and then 25 μL of reaction mixture was transferred to reading plate and measured on Caliper EZ reader II. The substrate-product conversion rate was used as raw data for normalization and concentration-response curve (10 dose points with 4× serial dilution, starting with 10 μM) was plotted using Prism to calculate IC50 (M), pIC50 (−log IC50) and HillSlope value.

Assay [2] has as its system NIH/3T3 cells transfected with the same control vector. The assay can be described thus: NIH/3T3 mock cell proliferation assay (counter assay, general toxicity). Format: cell-based. To be noted: Mus musculus, NIH3T3, 72 h, 72-hr incubation, CellTiter Glo, starting with 30 μM; counter assay for general toxicity; read-out: NIH/3T3 MOCK CTG (IC50). The procedure: NIH/3T3 Mock Cell Proliferation Assay
(§2) In day 1, 90 μL of cell suspension (NIH/3T3 cells transfected with the same control vector as in the above two proliferation assays) (total 30,000 cells per well in growth medium (DMEM containing 1% Glutamax, 10% FBS and 1% Pen/Strep)) was seeded in a 96-well plate and then incubated overnight at 37° C. and 5% CO2. In day 2, 10 μL of growth medium containing 10-fold stock solution of testing compound was added into cell cultures (9 dose points with 3× serial dilution, starting with 30 μM, 0.3% DMSO final). After 72-hr incubation at 37° C. and 5% CO2, in day 5 a volume of 50 μL CellTiter Glo (CTG) reagent was added into cell-containing 96-well plate and the plate was incubated at room temperature for 10 minutes before RLUs (relative light unit) were measured on a microplate reader with luminescence detection module. The RLU value was normalized to survival % and concentration-response curve was plotted using Prism to calculate IC50 (M), pIC50 (−log IC50) and HillSlope value.
On the technique in general: Cellular ATP, detected with luciferase, serves as a proxy for viable cell number.

The target of assay [3] is T2, NIH/3T3 cells overexpressing FGFR3 WT-TACC3 fusion protein (Homo sapiens, UniProt P22607).
T2 construct: NIH/3T3 FGFR3 WT-TACC3 CTG (IC50); other: 72-hr incubation, CellTiter Glo, starting with 10 μM; fused on or other part: Q9Y6A5 (Transforming acidic coiled-coil-containing protein 3)
T2 sequence (P22607 whole entry, change not shown, the tested form may be a part): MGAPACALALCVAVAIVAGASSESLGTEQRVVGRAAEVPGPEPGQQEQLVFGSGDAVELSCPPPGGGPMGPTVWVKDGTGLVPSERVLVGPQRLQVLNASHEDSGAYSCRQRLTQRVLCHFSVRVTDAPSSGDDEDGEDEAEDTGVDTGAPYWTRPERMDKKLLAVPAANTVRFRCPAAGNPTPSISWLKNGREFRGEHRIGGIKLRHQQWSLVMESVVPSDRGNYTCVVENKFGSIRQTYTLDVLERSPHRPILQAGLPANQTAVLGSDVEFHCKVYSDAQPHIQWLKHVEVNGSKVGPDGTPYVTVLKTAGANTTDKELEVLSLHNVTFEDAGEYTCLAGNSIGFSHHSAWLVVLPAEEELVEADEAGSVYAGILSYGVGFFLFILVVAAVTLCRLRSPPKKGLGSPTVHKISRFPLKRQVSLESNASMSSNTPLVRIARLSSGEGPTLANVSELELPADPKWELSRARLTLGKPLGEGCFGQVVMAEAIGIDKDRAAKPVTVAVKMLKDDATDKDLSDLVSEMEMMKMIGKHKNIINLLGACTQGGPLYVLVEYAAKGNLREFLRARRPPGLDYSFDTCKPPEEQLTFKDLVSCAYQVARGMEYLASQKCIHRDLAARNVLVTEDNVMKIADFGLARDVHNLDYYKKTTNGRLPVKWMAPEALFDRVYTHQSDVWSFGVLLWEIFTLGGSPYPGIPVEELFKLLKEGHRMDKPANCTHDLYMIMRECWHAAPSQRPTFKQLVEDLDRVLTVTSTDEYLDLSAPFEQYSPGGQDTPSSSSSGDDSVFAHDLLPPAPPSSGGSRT
The assay can be described thus: NIH/3T3 FGFR3 WT-TACC3 cell proliferation assay. Format: cell-based. To be noted: 72-hr incubation, CellTiter Glo, starting with 10 μM; read-out: NIH/3T3 FGFR3 WT-TACC3 CTG (IC50). The procedure: NIH/3T3 FGFR3 WT-TACC3 Cell Proliferation Assay
as §2, with “cells overexpressing FGFR3 WT-TACC3 fusion protein)” for “cells transfected with the same control vector as in the above two proliferation assays)”, “with 4×” for “with 3×”, “with 10” for “with 30”, “μM, 0.1%” for “μM, 0.3%”

The target in assay [4] is T3, human FGFR3 V555M enzyme (cytoplasmic domain carrying V555M mutation) (Homo sapiens, UniProt P22607, V555M).
T3 construct: human FGFR3 V555M enzyme (cytoplasmic domain carrying V555M mutation, from Carna Biosciences); purchased Carna Biosciences
T3 sequence (P22607 397-806 V555M limits assumed): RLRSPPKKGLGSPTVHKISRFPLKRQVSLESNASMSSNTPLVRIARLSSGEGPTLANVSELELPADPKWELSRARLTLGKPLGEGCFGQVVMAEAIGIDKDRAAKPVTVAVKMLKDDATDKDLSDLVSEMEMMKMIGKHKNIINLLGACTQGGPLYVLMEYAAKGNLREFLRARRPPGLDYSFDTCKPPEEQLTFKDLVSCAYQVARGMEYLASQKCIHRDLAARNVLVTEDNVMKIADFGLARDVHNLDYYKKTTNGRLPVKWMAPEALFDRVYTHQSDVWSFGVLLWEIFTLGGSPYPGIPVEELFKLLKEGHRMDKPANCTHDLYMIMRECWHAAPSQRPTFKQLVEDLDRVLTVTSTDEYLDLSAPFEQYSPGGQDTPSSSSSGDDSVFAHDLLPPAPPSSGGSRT
The assay can be described thus: FGFR3 V555M mobility shift assay (enzymatic assay). Format: biochemical. Particulars: 30 μM ATP, 45 minutes at 30° C., Caliper EZ reader II. The procedure: FGFR3 V555M Mobility Shift Assay (Enzymatic Assay)
as §1, with “FGFR3 V555M” for “FGFR3 wild type”, “(cytoplasmic domain carrying V555M mutation,” for “(cytoplasmic domain,”, “with 30” for “with 75”, “for 45” for “for 50”

In assay [5] the target is T4, NIH/3T3 cells overexpressing FGFR3 V555M-TACC3 fusion protein (Homo sapiens, UniProt P22607, V555M, cells depend on it).
T4 construct: NIH/3T3 FGFR3 V555M-TACC3 CTG (IC50); other: 72-hr incubation, CellTiter Glo, starting with 10 μM; fused on or other part: Q9Y6A5 (Transforming acidic coiled-coil-containing protein 3)
T4 sequence (P22607 whole entry V555M, the tested form may be a part): as the sequence (P22607 whole entry, change not shown, the tested form may be a part) above, with V555M counted along it
Put plainly: NIH/3T3 FGFR3 V555M-TACC3 cell proliferation assay. In kind it is cell-based. Particulars: 72-hr incubation, CellTiter Glo, starting with 10 μM; read-out: NIH/3T3 FGFR3 V555M-TACC3 CTG (IC50). The procedure: NIH/3T3 FGFR3 V555M-TACC3 Cell Proliferation Assay
as §2, with “cells overexpressing FGFR3 V555M-TACC3 fusion protein)” for “cells transfected with the same control vector as in the above two proliferation assays)”, “with 4×” for “with 3×”, “with 10” for “with 30”, “μM, 0.1%” for “μM, 0.3%”

T1 sequence (P22607 397-806 limits assumed): as the sequence (P22607 397-806 V555M limits assumed) above, with M159V counted along it

Consider `COC(=O)C1CN(c2ccc3nc(-c4c(N[C@@H](C)c5ccccn5)c5ccccc5[nH]c4=O)[nH]c3c2)CCO1` (mixture of isomers) [Compound 59, (Rac)-methyl 4-(2-(2-oxo-4-(((S)-1-(pyridin-2-yl)ethyl)amino)-1,2-dihydroquinolin-3-yl)-1H-benzo[d]imidazol-6-yl)morpholine-2-carboxylate], for which the IC50 in assay [1] came to 0.788 nM; in assay [2] it was 7290 nM; in assay [4], 0.359 nM. Further, the GI50 in assay [3] was determined as 31.9 nM; in assay [5], 61.7 nM.
With `C[C@H](Nc1c(-c2nc3ccc(N4CCOC(C(=O)O)C4)cc3[nH]2)c(=O)[nH]c2ccccc12)c1ccccn1` (mixture of isomers) [Compound 60, (Rac)-4-(2-(2-oxo-4-(((S)-1-(pyridin-2-yl)ethyl)amino)-1,2-dihydroquinolin-3-yl)-1H-benzo[d]imidazol-6-yl)morpholine-2-carboxylic acid], the IC50 in assay [1] was 1.18 nM; in assay [2] it was greater than 30000 nM; in assay [4], 0.603 nM. Besides, the GI50 turned out to be 1280 nM in assay [3] and 1620 nM in assay [5].
Turning to `CC(Nc1c(-c2nc3ccc(N4CCN(C)CC4)cc3[nH]2)c(=O)[nH]c2ccccc12)c1cocn1` (single isomer, unassigned) [Compound 11a, (S*)-3-(6-(4-methylpiperazin-1-yl)-1H-benzo[d]imidazol-2-yl)-4-((1-(oxazol-4-yl)-ethyl)amino)quinolin-2(1H)-one], the IC50 came out at 32.6 nM in assay [1] and 12 nM in assay [4].
As for `CC(Nc1c(-c2nc3ccc(N4CCN(C)CC4)c(F)c3[nH]2)c(=O)[nH]c2ccccc12)c1ccccn1` (single isomer, unassigned) [Compound 13b, (S*)-3-(7-fluoro-6-(4-methylpiperazin-1-yl)-1H-benzo[d]imidazol-2-yl)-4-((1-(pyridin-2-yl)ethyl)amino)quinolin-2(1H)-one], the IC50 is 1.05 nM in assay [1], 1740 nM in assay [2] and 0.449 nM in assay [4]. Also, the GI50 is 3.46 nM in assay [3] and 4.34 nM in assay [5].
For `CC(Nc1c(-c2nc3ccc(N4C[C@@H](C)O[C@@H](C)C4)cc3[nH]2)c(=O)[nH]c2ccccc12)c1ncccn1` (single isomer, unassigned) [Compound 22a, 3-(6-((2S,6R)-2,6-dimethylmorpholino)-1H-benzo[d]imidazol-2-yl)-4-(((S*)-1-(pyrimidin-2-yl)ethyl)amino)quinolin-2(1H)-one], the IC50 in assay [1] came to 0.445 nM; in assay [2], 6390 nM; in assay [4] it was 0.421 nM. The GI50 in assay [3] came out at 13.3 nM; in assay [5] it was 6.48 nM.
For the compound `CC(Nc1c(-c2nc3ccc(N4C[C@@H](C)O[C@H](C)C4)cc3[nH]2)c(=O)[nH]c2ccccc12)c1ncccn1` (single isomer, unassigned) [Compound 37b, 3-(6-((2R,6R)-2,6-dimethylmorpholino)-1H-benzo[d]imidazol-2-yl)-4-(((R*)-1-(pyrimidin-2-yl)ethyl)amino)quinolin-2(1H)-one], the IC50 in assay [1] amounted to 29.3 nM; in assay [4], 20.2 nM.
Regarding `CC(Nc1c(-c2nc3ccc(N4CCN(CCC(F)(F)F)CC4)cc3[nH]2)c(=O)[nH]c2ccccc12)c1ncccn1` (single isomer, unassigned) [Compound 41b, (R*)-4-((1-(pyrimidin-2-yl)ethyl)amino)-3-(6-(4-(3,3,3-trifluoropropyl)piperazin-1-yl)-1H-benzo[d]imidazol-2-yl)quinolin-2(1H)-one], the IC50 came out at 39.4 nM in assay [1] and 19.4 nM in assay [4].
In the same order, the values of `CC(C)c1ccnc(C(C)Nc2c(-c3nc4ccc(N5CCOCC5)cc4[nH]3)c(=O)[nH]c3ccccc23)n1` (single isomer, unassigned) [Compound 49a, (S*)-4-((1-(4-isopropylpyrimidin-2-yl)ethyl)amino)-3-(6-morpholino-1H-benzo[d]-imidazol-2-yl)quinolin-2(1H)-one] are 27 nM and 7.07 nM.
`C[C@H](Nc1c(-c2nc3ccc(N4CCOCC4)cc3[nH]2)c(=O)[nH]c2ccccc12)c1nccc(C2CC2)n1` (single isomer, unassigned) [Compound 50a, (S*)-4-((1-(4-cyclopropylpyrimidin-2-yl)ethyl)amino)-3-(6-morpholino-H-benzo[d]-imidazol-2-yl)quinolin-2(1H)-one]: the IC50 in assay [1] stood at 48.9 nM; in assay [4], 8.75 nM.
As for `CC(Nc1c(-c2nc3ccc(-c4cnn(C)c4)cc3[nH]2)c(=O)[nH]c2ccccc12)c1ncccn1` (single isomer, unassigned) [Compound 53b, (R*)-3-(6-(1-methyl-1H-pyrazol-4-yl)-1H-benzo[d]imidazol-2-yl)-4-((1-(pyrimidin-2-yl)ethyl)amino)quinolin-2(1H)-one], the IC50 is 35.2 nM in assay [1] and 15.3 nM in assay [4].
Take `CC(Nc1c(-c2nc3cc(C(F)(F)F)c(N4CCC(C(=O)OC(C)(C)C)CC4)cc3[nH]2)c(=O)[nH]c2ccccc12)c1ncccn1` (single isomer, unassigned) [Compound 57, (S*)-tert-butyl 1-(2-(2-oxo-4-((1-(pyrimidin-2-yl)ethyl)amino)-1,2-dihydroquinolin-3-yl)-5-(trifluoromethyl)-1H-benzo[d]imidazol-6-yl)piperidine-4-carboxylate]: the results for the IC50 in assay [1] and in assay [4] were 61.9 nM and 19.2 nM, respectively.

The values above are taken from patent US11384075B2, “Quinolinone compounds” (Janssen Pharmaceutica NV, priority 2017, dated 2022).
